Legend:
PREP = target: T1, PREP (Homo sapiens, UniProt P48147); experiment: Inhibitory activity against human recombinant PREP (IC50); format: biochemical; conditions: selected substances
T1 construct: purchased R&D Systems 4308-SE-010
T1 sequence (P48147 1-710): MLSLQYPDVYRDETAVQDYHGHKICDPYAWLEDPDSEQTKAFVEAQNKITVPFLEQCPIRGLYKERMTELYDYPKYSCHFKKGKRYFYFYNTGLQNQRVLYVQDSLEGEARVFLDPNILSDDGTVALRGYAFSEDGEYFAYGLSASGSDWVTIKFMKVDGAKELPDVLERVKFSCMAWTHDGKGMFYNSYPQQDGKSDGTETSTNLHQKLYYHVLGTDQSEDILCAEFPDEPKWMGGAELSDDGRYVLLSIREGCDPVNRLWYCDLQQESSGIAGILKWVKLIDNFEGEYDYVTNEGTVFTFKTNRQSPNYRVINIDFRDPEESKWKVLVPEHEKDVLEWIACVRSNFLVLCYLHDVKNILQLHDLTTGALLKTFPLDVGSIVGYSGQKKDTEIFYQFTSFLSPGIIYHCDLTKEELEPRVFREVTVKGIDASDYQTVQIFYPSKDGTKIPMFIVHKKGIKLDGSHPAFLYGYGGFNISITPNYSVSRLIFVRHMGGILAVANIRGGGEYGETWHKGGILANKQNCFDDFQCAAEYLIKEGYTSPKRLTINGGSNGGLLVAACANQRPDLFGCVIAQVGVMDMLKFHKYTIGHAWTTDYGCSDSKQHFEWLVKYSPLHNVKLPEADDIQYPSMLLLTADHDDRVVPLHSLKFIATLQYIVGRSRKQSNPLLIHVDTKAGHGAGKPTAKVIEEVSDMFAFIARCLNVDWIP
Experimental: (§1) Data were analysed by nonlinear regression with GraphPrism (version 8.3.1). The measurement results are given as values of the mean inhibitory concentration IC50 and its linearized form via the negative decimal logarithm of pIC50.

[1] = Stability in human plasma; format: in vitro ADME; conditions: 37° C.; for Stability in human plasma: up to 120 minutes
Experimental: (§2) An aliquot of plasma was extracted with 120 μl of methanol containing caffeine as an internal standard. The solution was vortexed (5 min) and centrifuged (20500 g; 10 min), the supernatant was transferred to a vial, and 1 μl of the mixture was used for LC-MS analysis. […] Results are presented as the percentage of test substance versus control (aliquot taken at time 0).

[2] = Stability in murine plasma; format: in vitro ADME; conditions: 37° C.; for Stability in murine plasma: up to 120 minutes
Experimental: as §2

[3] = Stability in murine microsomes; format: in vitro ADME; conditions: for Stability in murine microsomes: murine microsomes 0.5 mg/ml, 5 μmol·l^−1 test substance, NADPH
Experimental: The incubation of 37.5 μl of the mixture was terminated by the addition of 150 μl of acetonitrile containing caffeine as an internal standard, cooled to 0° C. The mixture was vortexed (5 min) and centrifuged (20500 g; 10 min). The supernatant was transferred to a vial, and 1 μl of the mixture was used for LC-MS analysis. […] Results are presented as the percentage of test substance versus control (aliquot taken at time 0).

CCRF-CEM = experiment: Cytotoxicity (XTT) on CCRF-CEM cells; format: cell-based, human; conditions: 72 h
Experimental: (§3) The cytotoxicity of the substances was measured on four tumour cell lines: CCRF-CEM, HepG2, Hela, HL-60. All cell lines were purchased from ATCC (Manassas, VA, USA). Cells were cultured in RPMI-1640 or DMEM medium containing 10% (wt/wt) FBS and 1% (wt/wt) GlutaMax. Cells were distributed at 2,000-10,000 per well of a 384-well plate (Thermo Fisher Scientific, Waltham, USA) and incubated overnight. After 24 hours, test substance solutions (10 or 100 μmol·l^−1) were added to the wells and the cells were incubated with the test substances at 37° C. and 5% (vol./vol.) CO2 for another 72 h. XTT dye (XTT cell proliferation kit II, Roche Diagnostics GmbH, Mannheim, Germany) was added to the wells according to the manufacturer's protocol. After one hour of incubation with the dye, the absorbance at 495 nm was measured and the signal was compared with the control (100% viability=cells without test substance).

HL-60 = experiment: Cytotoxicity (XTT) on HL-60 cells; format: cell-based, human; conditions: 72 h
Experimental: as §3

Hela = experiment: Cytotoxicity (XTT) on Hela cells; format: cell-based, human; conditions: 72 h
Experimental: as §3

HepG2 = experiment: Cytotoxicity (XTT) on HepG2 cells; format: cell-based, human; conditions: 72 h
Experimental: as §3

DPPIV = target: T2, DPPIV (Homo sapiens, UniProt P27487); experiment: Inhibitory activity against human recombinant DPPIV (IC50); format: biochemical; conditions: selected substances
T2 construct: purchased R&D Systems 9168-SE-010
T2 sequence (P27487 whole entry): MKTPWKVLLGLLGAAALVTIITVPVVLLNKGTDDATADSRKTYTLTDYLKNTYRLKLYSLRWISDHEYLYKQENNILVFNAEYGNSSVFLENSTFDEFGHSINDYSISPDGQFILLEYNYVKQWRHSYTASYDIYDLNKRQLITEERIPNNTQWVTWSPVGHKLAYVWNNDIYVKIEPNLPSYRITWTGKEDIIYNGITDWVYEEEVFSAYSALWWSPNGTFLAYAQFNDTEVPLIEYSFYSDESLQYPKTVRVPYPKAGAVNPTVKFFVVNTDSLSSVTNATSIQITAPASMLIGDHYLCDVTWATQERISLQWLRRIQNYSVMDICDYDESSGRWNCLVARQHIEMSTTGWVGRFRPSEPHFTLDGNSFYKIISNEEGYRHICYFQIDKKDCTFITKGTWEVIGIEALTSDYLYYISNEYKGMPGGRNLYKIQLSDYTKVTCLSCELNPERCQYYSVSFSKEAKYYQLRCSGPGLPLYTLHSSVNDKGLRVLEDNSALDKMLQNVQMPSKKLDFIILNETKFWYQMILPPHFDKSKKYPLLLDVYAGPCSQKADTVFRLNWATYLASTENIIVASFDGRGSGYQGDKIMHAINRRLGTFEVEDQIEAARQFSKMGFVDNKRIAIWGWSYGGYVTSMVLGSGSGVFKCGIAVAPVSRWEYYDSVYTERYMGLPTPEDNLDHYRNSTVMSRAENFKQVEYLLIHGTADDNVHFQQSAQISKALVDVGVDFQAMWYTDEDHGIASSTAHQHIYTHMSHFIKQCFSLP
Experimental: as §1

| SMILES | IC50 (PREP) [nM] | substance degraded within 120 minutes ([1]; 120 minutes) [%] | Stability in human plasma [1] | substance degraded within 20 minutes [2] [%] | Stability in murine plasma [2] | Stability in murine microsomes [3] | Cell viability CEM 10 μM (CCRF-CEM) [% vs. control] | Cell viability CEM 100 μM (CCRF-CEM) [% vs. control] | Cell viability HL60 10 μM (HL-60) [% vs. control] | Cell viability HL60 100 μM (HL-60) [% vs. control] | Cell viability HeLa S3 10 μM (Hela) [% vs. control] | Cell viability HeLa S3 100 μM (Hela) [% vs. control] | Cell viability HepG2 10 μM (HepG2) [% vs. control] | Cell viability HepG2 100 μM (HepG2) [% vs. control] | IC50 (DPPIV) [nM] | substance degraded within 20 minutes ([3]; murine microsomes, 20 minutes) [%] |
| --- | --- | --- | --- | --- | --- | --- | --- | --- | --- | --- | --- | --- | --- | --- | --- | --- |
| COC(=O)[C@H](Cc1ccccc1)NC(=O)CNC(=O)C(=O)[C@@H]1CCCN1C(=O)CNC(=O)c1ccnc2ccccc12 [Compound 5f, Methyl (2-oxo-2-((S)-1-((quinoline-4-carbonyl)glycyl)pyrrolidin-2-yl)acetyl)glycyl-L-phenylalaninate] | 0.3 | 25 | stable | 100 | degrade immediately | partially stable | 98 | 72 | 114 | 98 | 96 | 100 | 78 | 121 |  |  |
| COC(=O)[C@H](CCCCNC(=O)OCc1ccccc1)NC(=O)CNC(=O)C(=O)[C@@H]1CCCN1C(=O)CNC(=O)c1ccnc2ccccc12 [Compound 5i] | 0.26 |  |  |  |  |  | 107 | 107 | 104 | 101 | 94 | 98 | 89 | 101 |  |  |
| O=C(NCc1ccccc1)C(=O)[C@@H]1CCCN1C(=O)CNC(=O)c1ccnc2ccccc12 [Compound 3a, (S)—N-(2-(2-(2-(Benzylamino)-2-oxoacetyl)pyrrolidin-1-yl)-2-oxoethyl)quinoline-4-carboxamide] |  |  | stable |  | stable | stable | 105 | 94 | 94 | 106 | 119 | 96 | 103 | 107 |  |  |
| CCCCCNC(=O)C(=O)[C@@H]1CCCN1C(=O)CNC(=O)c1ccnc2ccccc12 [Compound 3j, (S)—N-(2-Oxo-2-(2-(2-oxo-2-(pentylamino)acetyl)pyrrolidin-1-yl)ethyl)quinoline-4-carboxamide] | 0.4 |  |  |  |  |  | 94 | 119 | 109 | 123 | 93 | 109 | 76 | 124 | > 4000 |  |
| COC(=O)[C@H](CCC(=O)OCc1ccccc1)NC(=O)CNC(=O)C(=O)[C@@H]1CCCN1C(=O)CNC(=O)c1ccnc2ccccc12 [Compound 5h, 5-Benzyl 1-methyl (2-oxo-2-((S)-1-((quinoline-4-carbonyl)glycyl)pyrrolidin-2-yl)acetyl)glycyl-L-glutamate] |  |  | stable | 100 | degrade immediately | unstable | 114 | 103 | 109 | 106 | 116 | 93 | 112 | 105 |  | 100 |
| CC(C)(C)OC(=O)CNC(=O)C(=O)[C@@H]1CCCN1C(=O)CNC(=O)c1ccnc2ccccc12 [Compound 3l, tert-Butyl (S)-(2-oxo-2-(1-((quinoline-4-carbonyl)glycyl)pyrrolidin-2-yl)acetyl)glycinate] | 0.6 |  |  |  |  |  | 104 | 121 | 104 | 111 | 95 | 100 | 97 | 109 | > 4000 |  |
| COc1ccc(CCNC(=O)C(=O)[C@@H]2CCCN2C(=O)CNC(=O)c2ccnc3ccccc23)cc1OC [Compound 3e, (S)—N-(2-(2-(2-((3,4-Dimethoxyphenethyl)amino)-2-oxoacetyl)pyrrolidin-1-yl)-2-oxoethyl)quinoline-4-carboxamide] | 0.5 |  | stable |  | stable | partially stable | 108 | 85 | 101 | 106 | 104 | 86 | 92 | 90 | > 4000 |  |
| COC(=O)[C@H](CCC(N)=O)NC(=O)CNC(=O)C(=O)[C@@H]1CCCN1C(=O)CNC(=O)c1ccnc2ccccc12 [Compound 5g, Methyl (2-oxo-2-((S)-1-((quinoline-4-carbonyl)glycyl)pyrrolidin-2-yl)acetyl)glycyl-L-glutaminate] |  |  |  |  |  |  | 114 | 101 | 88 | 103 | 109 | 99 | 102 | 108 |  |  |
